Counter-ions that a name gives are not always drawn.

The target in one assay is T1, LHRH rat pituitary receptor (Rattus norvegicus, UniProt P30969).
T1 construct: from tissue; host or cells: rat pituitary
T1 sequence (P30969 1-327): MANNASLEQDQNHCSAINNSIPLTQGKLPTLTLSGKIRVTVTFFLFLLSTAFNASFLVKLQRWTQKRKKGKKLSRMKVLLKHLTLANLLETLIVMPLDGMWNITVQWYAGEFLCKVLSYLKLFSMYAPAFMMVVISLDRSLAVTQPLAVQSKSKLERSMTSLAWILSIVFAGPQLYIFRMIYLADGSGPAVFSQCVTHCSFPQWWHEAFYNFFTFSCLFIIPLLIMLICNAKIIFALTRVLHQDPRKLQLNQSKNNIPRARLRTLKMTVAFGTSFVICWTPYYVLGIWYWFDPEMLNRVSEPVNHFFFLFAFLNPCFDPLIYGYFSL
As to the kind of experiment: LHRH rat pituitary receptor binding (pKI). The settings on record: negative logarithm of the equilibrium dissociation constants, Table 1. The procedure:
Representative compounds of the present invention were evaluated in in vitro tests for LHRH rat pituitary receptor binding (pKI) and for LH inhibition from rat pituitary cells for antagonist potency (pA2). The tests employed the methods detailed in F. Haviv, et al. J. Med. Chem., 32: 2340-2344 (1989). The receptor binding affinity (pKI) is the negative logarithm of the equilibrium dissociation constants.
As for “3'-N-Desmethyl-3'-N-[3-(3-pyridyl)propyl]-11-deoxy-11-[carboxy-(3,4-dichlorophenethylamino)]-6-O-methyl-erythromycin A 11,12-(cyclic carbamate) [Example 79]”, the “receptor binding affinity (pKI)” value is 8.11.

With `CC[C@H]1OC(=O)[C@H](C)[C@@H](O[C@H]2C[C@@](C)(OC)[C@@H](O)[C@H](C)O2)[C@H](C)[C@@H](O[C@@H]2O[C@H](C)C[C@H](N(C)C3CC(C)C(C)C3)[C@H]2O)[C@](C)(OC)C[C@@H](C)C(=O)[C@H](C)[C@H]2N(CCc3ccc(Cl)c(Cl)c3)C(=O)O[C@]12C` (some centres unmarked) [Example 9, 3'-N-Desmethyl-3'-N-(3,4-dimethylcyclopentyl)-11-deoxy-11-[carboxy-(3,4-dichlorophenethylamino)]-6-O-methyl-erythromycin A 11,12-(cyclic carbamate)], the “receptor binding affinity (pKI)” value is reported as 8.36.

The same assay, now with this note: negative logarithm of the equilibrium dissociation constants, Table 1, read-out: receptor binding affinity (pKI) (converted).
Take `CC[C@H]1OC(=O)[C@H](C)[C@@H](O[C@H]2C[C@@](C)(OC)[C@@H](O)[C@H](C)O2)[C@H](C)[C@@H](O[C@@H]2O[C@H](C)C[C@H](N(C)C3CC3)[C@H]2O)[C@](C)(OC)C[C@@H](C)C(=O)[C@H](C)[C@H]2N(CCc3ccc(Cl)c(Cl)c3)C(=O)O[C@]12C` [Example 2, 3'-N-Desmethyl-3'-N-cyclopropyl-11-deoxy-11-[carboxy-(3,4-dichlorophenethylamino)]-6-O-methyl-erythromycin A 11,12-(cyclic carbamate)]: the Ki is 0.575 nM.

For the molecule `CC[C@H]1OC(=O)[C@H](C)[C@@H](O[C@H]2C[C@@](C)(OC)[C@@H](O)[C@H](C)O2)[C@H](C)[C@@H](O[C@@H]2O[C@H](C)C[C@H](N(C)C3CCC3)[C@H]2O)[C@](C)(OC)C[C@@H](C)C(=O)[C@H](C)[C@H]2N(CCc3ccc(Cl)c(Cl)c3)C(=O)O[C@]12C` [Example 4, 3'-N-Desmethyl-3'-N-cyclobutyl-11-deoxy-11-[carboxy-(3,4-dichlorophenethylamino)]-6-O-methyl-erythromycin A 11,12-(cyclic carbamate) hydrochloride], the Ki was 3.24 nM. On the same count and under the same terms, under `CC[C@H]1OC(=O)[C@H](C)[C@@H](O[C@H]2C[C@@](C)(OC)[C@@H](O)[C@H](C)O2)[C@H](C)[C@@H](O[C@@H]2O[C@H](C)C[C@H](N(C)C3CCCCC3)[C@H]2O)[C@](C)(OC)C[C@@H](C)C(=O)[C@H](C)[C@H]2N(CCc3ccc(Cl)c(Cl)c3)C(=O)O[C@]12C` [Example 5, 3'-N-Desmethyl-3'-N-cyclohexyl-11-deoxy-11-[carboxy-(3,4-dichlorophenethylamino)]-6-O-methyl-erythromycin A 11,12-(cyclic carbamate)] stands 3.63 nM. With `CC[C@H]1OC(=O)[C@H](C)[C@@H](O[C@H]2C[C@@](C)(OC)[C@@H](O)[C@H](C)O2)[C@H](C)[C@@H](O[C@@H]2O[C@H](C)C[C@H](N(C)CCC(C)C)[C@H]2O)[C@](C)(OC)C[C@@H](C)C(=O)[C@H](C)[C@H]2N(CCc3ccc(Cl)c(Cl)c3)C(=O)O[C@]12C` [Example 6], the Ki was 8.13 nM.

Consider `CC[C@H]1OC(=O)[C@H](C)[C@@H](O[C@H]2C[C@@](C)(OC)[C@@H](O)[C@H](C)O2)[C@H](C)[C@@H](O[C@@H]2O[C@H](C)C[C@H](N(C)CCCSC)[C@H]2O)[C@](C)(OC)C[C@@H](C)C(=O)[C@H](C)[C@H]2N(CCc3ccc(Cl)c(Cl)c3)C(=O)O[C@]12C` [Example 7, 3'-N-Desmethyl-3'-N-(3-methylthiopropyl)-11-deoxy-11-[carboxy-(3,4-dichlorophenethylamino)]-6-O-methyl-erythromycin A 11,12-(cyclic carbamate)], for which the Ki is 4.68 nM. On the same count and under the same terms, with `CC[C@H]1OC(=O)[C@H](C)[C@@H](O[C@H]2C[C@@](C)(OC)[C@@H](O)[C@H](C)O2)[C@H](C)[C@@H](O[C@@H]2O[C@H](C)C[C@H](N(C)C3CCSC3)[C@H]2O)[C@](C)(OC)C[C@@H](C)C(=O)[C@H](C)[C@H]2N(CCc3ccc(Cl)c(Cl)c3)C(=O)O[C@]12C` (some centres unmarked) [Example 8, 3'-N-Desmethyl-3'-N-(3-tetrahydrothienyl)-11-deoxy-11-[carboxy-(3,4-dichlorophenethylamino)]-6-O-methyl-erythromycin A 11,12-(cyclic carbamate)] the figure was 7.41 nM; with `CC[C@H]1OC(=O)[C@H](C)[C@@H](O[C@H]2C[C@@](C)(OC)[C@@H](O)[C@H](C)O2)[C@H](C)[C@@H](O[C@@H]2O[C@H](C)C[C@H](N(C)C(C)C)[C@H]2O)[C@](C)(OC)C[C@@H](C)C(=O)[C@H](C)[C@H]2N(CC3(c4ccc(Cl)c(Cl)c4)CC3)C(=O)O[C@]12C` [Example 10, 3'-N-Desmethyl-3'-N-isopropyl-11-deoxy-11-[carboxy-(α,α-cyclopropyl-3,4-dichlorophenethylamino)]-6-O-methyl-erythromycin A 11,12-(cyclic carbamate)], 1.74 nM. For `CC[C@H]1OC(=O)[C@H](C)[C@@H](O[C@H]2C[C@@](C)(OC)[C@@H](O)[C@H](C)O2)[C@H](C)[C@@H](O[C@@H]2O[C@H](C)C[C@H](N(C)C3CCC3)[C@H]2O)[C@](C)(OC)C[C@@H](C)C(=O)[C@H](C)[C@H]2N(CC3(c4ccc(Cl)c(Cl)c4)CC3)C(=O)O[C@]12C` [Example 11, 3'-N-Desmethyl-3'-N-cyclobutyl-11-deoxy-11-[carboxy-(α,α-cyclopropyl-3,4-dichlorophenethylamino)]-6-O-methyl-erythromycin A 11,12-(cyclic carbamate)], the Ki was 3.09 nM. Still for that read-out and setting: with `CC[C@H]1OC(=O)[C@H](C)[C@@H](O[C@H]2C[C@@](C)(OC)[C@@H](O)[C@H](C)O2)[C@H](C)[C@@H](O[C@@H]2O[C@H](C)C[C@H](N(C)C3CCCC3)[C@H]2O)[C@](C)(OC)C[C@@H](C)C(=O)[C@H](C)[C@H]2N(CC3(c4ccc(Cl)c(Cl)c4)CC3)C(=O)O[C@]12C` [Example 12, 3'-N-Desmethyl-3'-N-cyclopentyl-11-deoxy-11-[carboxy-(α,α-cyclopropyl-3,4-dichlorophenethylamino)]-6-O-methyl-erythromycin A 11,12-(cycliccarbamate)] the figure was 2.09 nM; with `CC[C@H]1OC(=O)[C@H](C)[C@@H](O[C@H]2C[C@@](C)(OC)[C@@H](O)[C@H](C)O2)[C@H](C)[C@@H](O[C@@H]2O[C@H](C)C[C@H](N(C)C3CCCCC3)[C@H]2O)[C@](C)(OC)C[C@@H](C)C(=O)[C@H](C)[C@H]2N(CC3(c4ccc(Cl)c(Cl)c4)CC3)C(=O)O[C@]12C` [Example 13, 3'-N-Desmethyl-3'-N-cyclohexyl-11-deoxy-11-[carboxy-(α,α-cyclopropyl-3,4-dichlorophenethylamino)]-6-O-methyl-erythromycin A 11,12-(cyclic carbamate)], 7.94 nM; with `CCCN(C)[C@H]1C[C@@H](C)O[C@@H](O[C@@H]2[C@@H](C)[C@H](O[C@H]3C[C@@](C)(OC)[C@@H](O)[C@H](C)O3)[C@@H](C)C(=O)O[C@H](CC)[C@@]3(C)OC(=O)N(CCc4ccc5c(c4)OCO5)[C@@H]3[C@@H](C)C(=O)[C@H](C)C[C@@]2(C)OC)[C@@H]1O` [Example 14, 3'-N-Desmethyl-3'-N-n-propyl-11-deoxy-11-[carboxy-(3,4-dioxolanophenethylamino)]-6-O-methyl-erythromycin A 11,12-(cyclic carbamate)], 1.78 nM. Consider `CC[C@H]1OC(=O)[C@H](C)[C@@H](O[C@H]2C[C@@](C)(OC)[C@@H](O)[C@H](C)O2)[C@H](C)[C@@H](O[C@@H]2O[C@H](C)C[C@H](N(C)C3CCCC3)[C@H]2O)[C@](C)(OC)C[C@@H](C)C(=O)[C@H](C)[C@H]2N(CCc3ccc4c(c3)OCO4)C(=O)O[C@]12C` [Example 15, 3'-N-Desmethyl-3'-N-cyclopentyl-11-deoxy-11[carboxy-(3,4-dioxolanophenethylamino)]-6-O-methyl-erythromycin A 11,12-(cyclic carbamate)], for which the Ki is 6.31 nM.

For `CC[C@H]1OC(=O)[C@H](C)[C@@H](O[C@H]2C[C@@](C)(OC)[C@@H](O)[C@H](C)O2)[C@H](C)[C@@H](O[C@@H]2O[C@H](C)C[C@H](N(C)C(C)C)[C@H]2O)[C@](C)(OC)C[C@@H](C)C(=O)[C@H](C)[C@H]2N(CCc3ccc(Cl)c(F)c3)C(=O)O[C@]12C` [Example 17, 3'-N-Desmethyl-3'-N-isopropyl-11-deoxy-11-[carboxy-(4-chloro-3-fluorophenethylamino)]-6-O-methyl-erythromycin A 11,12-(cyclic carbamate)], the Ki is 4.27 nM.

`CC[C@H]1OC(=O)[C@H](C)[C@@H](O[C@H]2C[C@@](C)(OC)[C@@H](O)[C@H](C)O2)[C@H](C)[C@@H](O[C@@H]2O[C@H](C)C[C@H](N(C)C3CCCC3)[C@H]2O)[C@](C)(OC)C[C@@H](C)C(=O)[C@H](C)[C@H]2N(CCc3ccc(Cl)c(F)c3)C(=O)O[C@]12C` [Example 18, 3'-N-Desmethyl-3'-N-cyclopentyl-11-deoxy-11-[carboxy-(4-chloro-3-fluorophenethylamino)]-6-O-methyl-erythromycin A 11,12-(cyclic carbamate)]: the Ki was 5.89 nM. Still for that read-out and setting: with `CC[C@H]1OC(=O)[C@H](C)[C@@H](O[C@H]2C[C@@](C)(OC)[C@@H](O)[C@H](C)O2)[C@H](C)[C@@H](O[C@@H]2O[C@H](C)C[C@H](N(C)CC3CCC3)[C@H]2O)[C@](C)(OC)C[C@@H](C)C(=O)[C@H](C)[C@H]2N(CCc3ccc(Cl)cc3)C(=O)O[C@]12C` [Example 19, 3'-N-Desmethyl-3'-N-cyclobutylmethyl-11-deoxy-11-[carboxy-(4-chlorophenethylamino)]-6-O-methyl-erythromycin A 11,12-(cyclic carbamate)] the figure was 1.58 nM.

For the origin of these results see patent US5955440A, “Macrolide LHRH antagonists” (Abbott Laboratories, priority 1998, dated 1999).
